For one assay, the target named is SHV-12 (Klebsiella pneumoniae, UniProt P0AD64, E235K/G234S/L31Q). The assay can be described thus: Inhibition of nitrocefin cleavage by purified SHV-12. It counts as biochemical. Conditions: nitrocefin reporter substrate, purified enzyme; read-out: Ki (SHV-12, NCF). As for the experimental part:
(§1) Purified enzymes were mixed with various concentrations of inhibitors in reaction buffer and incubated for 10 min at room temperature. Nitrocefin was added and substrate cleavage profiles were recorded at 490 nm every 10 sec for 10 min.

The subject of assay [1] is ec302 (TEM-10). Description: Potentiation of aztreonam, strain ec302. It counts as cell-based.
Assay [2] relates to ec308 (SHV-5). Description: Potentiation of tigemonam, strain ec308. It counts as cell-based. The note with it: minimum BLI concentration inhibiting growth with 4 μg/mL tigemonam.
For the next assay, the system named is KP1005 (CTX-M-14). The assay can be described thus: Potentiation of aztreonam, strain KP1005. It counts as cell-based.
For assay [3], the system named is ec308 (SHV-5). The assay can be described thus: Potentiation of aztreonam, strain ec308. It counts as cell-based. The note with it: minimum BLI concentration inhibiting growth with 4 μg/mL aztreonam.
Assay [4] has as its system KP1009 (CTX-M-15). Description: Potentiation of aztreonam, strain KP1009. It counts as cell-based.
A further assay concerns KP1004 (K-2). Description: Potentiation of aztreonam, strain KP1004. It counts as cell-based. Conditions: minimum BLI concentration inhibiting growth with 4 μg/mL aztreonam.
Assay [5] concerns EC1010 (CMY-6). Description: Potentiation of aztreonam, strain EC1010. It counts as cell-based.
The next assay relates to PAM1032/KPC-2. The assay can be described thus: Biapenem potentiation in PAM1032/KPC-2 (MexAB-OprM overexpressed). It counts as cell-based, Pseudomonas aeruginosa. As for the experimental part: (§2) Efflux of BLIs from Pseudomonas aeruginosa by the MexAB-OprM efflux pump was also evaluated. […] Due to expression of KPC-2 both strains became resistant to biapenem. […] Potency of BLIs to potentiate biapenem in these strains was determined. […] The ratio of MPC64 values for each BLI in PAM1032/KPC-2 (efflux proficient) and PAM1154/KPC-2 (efflux deficient) was determined to generate the Efflux Index (EI).

The test system of assay [6] is KP1009 (CTX-M-15). Description: Potentiation of tigemonam, strain KP1009. Conditions: minimum BLI concentration inhibiting growth with 4 μg/mL tigemonam.
The next assay relates to PAM1154/KPC-2. Description: Biapenem potentiation in PAM1154/KPC-2 (MexAB-OprM lacking). It counts as cell-based, Pseudomonas aeruginosa. As for the experimental part: as §2
The next assay deals with ECL1002. Description: Potentiation of aztreonam, strain ECL1002. Conditions: minimum BLI concentration inhibiting growth with 4 μg/mL aztreonam. It counts as cell-based.
The subject of assay [7] is ec302 (TEM-10). The assay can be described thus: Potentiation of tigemonam, strain ec302. It counts as cell-based.
Assay [8] deals with EC1010 (CMY-6). It counts as cell-based.
Another assay addresses CTX-M-14 (Escherichia coli, UniProt Q9L5C7). The assay can be described thus: Inhibition of nitrocefin cleavage by purified CTX-M-14. It counts as biochemical. The note with it: nitrocefin reporter substrate, purified enzyme; read-out: Ki (CTX-M-14, NCF). As for the experimental part:
as §1

For another assay, the target named is T1, CathepsinA (Homo sapiens, UniProt P10619).
T1 construct: purchased R&D Systems 1049-SE
T1 sequence (P10619 29-480): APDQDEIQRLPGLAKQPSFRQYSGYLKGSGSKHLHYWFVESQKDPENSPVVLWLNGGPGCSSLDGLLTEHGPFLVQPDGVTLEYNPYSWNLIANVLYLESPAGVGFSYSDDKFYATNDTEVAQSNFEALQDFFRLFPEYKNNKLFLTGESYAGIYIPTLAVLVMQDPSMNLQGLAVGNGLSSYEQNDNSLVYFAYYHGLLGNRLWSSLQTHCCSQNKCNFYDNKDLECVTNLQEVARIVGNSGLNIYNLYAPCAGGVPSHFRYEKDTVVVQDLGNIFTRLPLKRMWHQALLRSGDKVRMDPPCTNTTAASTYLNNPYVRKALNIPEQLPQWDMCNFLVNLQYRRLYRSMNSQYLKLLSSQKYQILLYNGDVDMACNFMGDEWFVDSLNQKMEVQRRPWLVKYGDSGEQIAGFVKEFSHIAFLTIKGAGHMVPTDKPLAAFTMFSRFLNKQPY
The assay can be described thus: Serine protease inhibition: cathepsin A. It counts as biochemical, mammalian. Conditions: Table 8B; read-out: IC50 CathepsinA. As for the experimental part:
(§3) The effect of selected BLIs on the enzymatic activity of some common mammalian serine proteases was evaluated.
(§4) 50 μl of the diluted enzyme was mixed with 50 μl of inhibitor at various concentrations and 50 μl of corresponding buffer (Table 7). Reaction mixtures were incubated for 10 min at 37° C. Subsequently, 50 μl of corresponding substrate (Table 7) was added and absorbance or fluorescence was monitored for 30 min on SpectraMax M2 plate reader (Molecular Devices). 4-(2-Aminoethyl)benzenesulfonyl fluoride hydrochloride (AEBSF) and leupeptin were used as positive controls. Rates of reaction were calculated and presented relative to “no treatment” control.

In another assay the target is T2, CathepsinG (Homo sapiens, UniProt P08311).
T2 construct: purchased EMD Millipore 219373
T2 sequence (P08311 21-244): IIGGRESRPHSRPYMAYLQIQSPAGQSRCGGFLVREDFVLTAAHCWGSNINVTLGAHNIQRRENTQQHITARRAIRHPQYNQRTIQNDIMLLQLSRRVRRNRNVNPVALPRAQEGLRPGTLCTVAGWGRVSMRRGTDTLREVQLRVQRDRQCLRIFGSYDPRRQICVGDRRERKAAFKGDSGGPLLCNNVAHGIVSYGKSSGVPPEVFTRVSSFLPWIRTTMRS
Description: Serine protease inhibition: cathepsin G. Conditions: Table 8B. It counts as biochemical, mammalian. As for the experimental part: as §3, §4

The target in a further assay is KPC-2 (Klebsiella pneumoniae, UniProt Q9F663). The assay can be described thus: Inhibition of nitrocefin cleavage by purified KPC-2. It counts as biochemical. Conditions: nitrocefin reporter substrate, purified enzyme; read-out: Ki (KPC-2, NCF). As to the method:
as §1

Molecules are shown by their SMILES. Read-outs that look alike come from different tables or passages of the source. A value given as a limit tells only on which side of the number the result lay.

CTX-M-14, sequence (Q9L5C7 entry or part of it): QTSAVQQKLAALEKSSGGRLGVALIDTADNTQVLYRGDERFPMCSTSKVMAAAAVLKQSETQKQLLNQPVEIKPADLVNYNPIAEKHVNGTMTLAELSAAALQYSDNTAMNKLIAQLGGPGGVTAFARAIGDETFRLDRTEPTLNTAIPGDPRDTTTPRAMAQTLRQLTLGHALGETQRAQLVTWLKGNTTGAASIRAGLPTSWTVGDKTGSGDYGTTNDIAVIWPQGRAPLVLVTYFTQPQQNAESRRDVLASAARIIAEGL
SHV-12, sequence (P0AD64 22-286 L31Q/G234S/E235K): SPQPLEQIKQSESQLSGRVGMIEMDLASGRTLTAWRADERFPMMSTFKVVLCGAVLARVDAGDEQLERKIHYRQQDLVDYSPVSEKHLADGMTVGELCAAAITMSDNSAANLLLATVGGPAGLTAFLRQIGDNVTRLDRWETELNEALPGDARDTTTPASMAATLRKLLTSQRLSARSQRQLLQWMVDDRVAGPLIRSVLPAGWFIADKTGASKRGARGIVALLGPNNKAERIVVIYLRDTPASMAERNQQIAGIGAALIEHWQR
KPC-2, sequence (Q9F663 25-293, looked up, species assumed): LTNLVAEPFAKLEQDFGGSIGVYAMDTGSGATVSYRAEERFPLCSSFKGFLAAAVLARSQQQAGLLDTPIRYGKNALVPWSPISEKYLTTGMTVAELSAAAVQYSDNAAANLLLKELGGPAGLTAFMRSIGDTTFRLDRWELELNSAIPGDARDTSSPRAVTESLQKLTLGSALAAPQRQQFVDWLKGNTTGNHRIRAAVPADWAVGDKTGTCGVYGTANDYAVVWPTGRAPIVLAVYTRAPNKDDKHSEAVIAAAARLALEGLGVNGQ

As for `NC(=O)N[C@H]1Cc2cccc(C(=O)O)c2OB1O` [Compound 6, (R)-2-hydroxy-3-ureido-3,4-dihydro-2H-benzo[e][1,2]oxaborinine-8-carboxylic acid], the Ki on SHV-12 and on CTX-M-14 was 1 to 10 nM each time. The “AZT MPC4 TEM-10 ec302” value in the assay with ec302 (TEM-10) [1] is recorded as “Z (key: X = MIC of less than 1 μg/mL; Y = MIC of 1 μg/mL to 10 μg/mL; Z = MIC of greater than 10 μg/mL)”. In the assay on ec308 (SHV-5) [2], the “TIG MPC4 SHV-5 ec308” value is “Z (Z = MIC of greater than 10 μg/mL)”. Also, the “AZT MPC4 CTX-M-14 KP1005” value in the assay on KP1005 (CTX-M-14) is recorded as “Y (key: X = MIC of less than 1 μg/mL; Y = MIC of 1 μg/mL to 10 μg/mL; Z = MIC of greater than 10 μg/mL)”. Moreover, the “AZT MPC4 SHV-5 ec308” value in the assay with ec308 (SHV-5) [3] is “Y (Y = MIC of 1 μg/mL to 10 μg/mL)”. For the same compound, the “AZT MPC4 CTX-M-15 KP1009” value in the assay with KP1009 (CTX-M-15) [4] is listed as “Y (key: X = MIC of less than 1 μg/mL; Y = MIC of 1 μg/mL to 10 μg/mL; Z = MIC of greater than 10 μg/mL)”. Further, the “AZT MPC4 K-2 KP1004” value with KP1004 (K-2) is given as “X (X = MIC of less than 1 μg/mL)”. Moreover, the “AZT MPC4 CMY-6 EC1010” value in the assay on EC1010 (CMY-6) [5] is “Y (key: X = MIC of less than 1 μg/mL; Y = MIC of 1 μg/mL to 10 μg/mL; Z = MIC of greater than 10 μg/mL)”. Besides, in the assay on PAM1032/KPC-2, the “PAM1032/KPC-2 Biapenem MPC64” value is given as “X (key: X = Less than 10; Y = 10 to 40; Z Greater than 40)”. Besides, the “TIG MPC4 CTX-M-15 KP1009” value with KP1009 (CTX-M-15) [6] is listed as “Y (Y = MIC of 1 μg/mL to 10 μg/mL)”. In addition, the “PAM1154/KPC-2 Biapenem MPC64” value in the assay with PAM1154/KPC-2 was “X (key: X = Less than 10; Y = 10 to 40; Z Greater than 40)”. For the same compound, the “AZT MPC4 ECL1002” value in the assay with ECL1002 was “Z (Z = MIC of greater than 10 μg/mL)”. Also, the “TIG MPC4 TEM-10 ec302” value with ec302 (TEM-10) [7] is “Z (key: X = MIC of less than 1 μg/mL; Y = MIC of 1 μg/mL to 10 μg/mL; Z = MIC of greater than 10 μg/mL)”. The “TIG MPC4 CMY-6 EC1010” value in the assay with EC1010 (CMY-6) [8] is listed as “X (key: X = MIC of less than 1 μg/mL; Y = MIC of 1 μg/mL to 10 μg/mL; Z = MIC of greater than 10 μg/mL)”.
For `O=C(N[C@H]1Cc2cccc(C(=O)O)c2OB1O)c1cncc(F)c1` [Compound 14, (R)-3-(5-fluoronicotinamido)-2-hydroxy-3,4-dihydro-2H-benzo[e][1,2]oxaborinine-8-carboxylic acid], the Ki at SHV-12 was less than 1 nM; at KPC-2 it was greater than 10 nM; at CTX-M-14, less than 1 nM. In the assay with ec302 (TEM-10) [1], the “AZT MPC4 TEM-10 ec302” value was “Y (key: X = MIC of less than 1 μg/mL; Y = MIC of 1 μg/mL to 10 μg/mL; Z = MIC of greater than 10 μg/mL)”. The IC50 at CathepsinA and at CathepsinG was 15000 to 500000 nM throughout. Besides, the “TIG MPC4 SHV-5 ec308” value in the assay on ec308 (SHV-5) [2] is recorded as “Y (Y = MIC of 1 μg/mL to 10 μg/mL)”. The “AZT MPC4 CTX-M-14 KP1005” value in the assay on KP1005 (CTX-M-14) is recorded as “Y (key: X = MIC of less than 1 μg/mL; Y = MIC of 1 μg/mL to 10 μg/mL; Z = MIC of greater than 10 μg/mL)”. For the same compound, in the assay on ec308 (SHV-5) [3], the “AZT MPC4 SHV-5 ec308” value is on record as “Y (Y = MIC of 1 μg/mL to 10 μg/mL)”. In addition, the “AZT MPC4 CTX-M-15 KP1009” value in the assay on KP1009 (CTX-M-15) [4] is reported as “Y (key: X = MIC of less than 1 μg/mL; Y = MIC of 1 μg/mL to 10 μg/mL; Z = MIC of greater than 10 μg/mL)”. Moreover, the “AZT MPC4 K-2 KP1004” value in the assay on KP1004 (K-2) is “Y (Y = MIC of 1 μg/mL to 10 μg/mL)”. Also, the “AZT MPC4 CMY-6 EC1010” value in the assay with EC1010 (CMY-6) [5] is on record as “Y (key: X = MIC of less than 1 μg/mL; Y = MIC of 1 μg/mL to 10 μg/mL; Z = MIC of greater than 10 μg/mL)”. Moreover, the “PAM1032/KPC-2 Biapenem MPC64” value with PAM1032/KPC-2 (BLI potency to decrease biapenem MIC 64-fold, 32 to 0.5 μg/ml, efflux proficient strain) was “Z (Z Greater than 40)”. Also, the “TIG MPC4 CTX-M-15 KP1009” value with KP1009 (CTX-M-15) [6] is reported as “Y (Y = MIC of 1 μg/mL to 10 μg/mL)”. The “PAM1154/KPC-2 Biapenem MPC64” value in the assay with PAM1154/KPC-2 is listed as “X (key: X = Less than 10; Y = 10 to 40; Z Greater than 40)”. Besides, in the assay with ECL1002, the “AZT MPC4 ECL1002” value was “Y (Y = MIC of 1 μg/mL to 10 μg/mL)”. Moreover, the “TIG MPC4 TEM-10 ec302” value in the assay with ec302 (TEM-10) [7] is recorded as “Y (key: X = MIC of less than 1 μg/mL; Y = MIC of 1 μg/mL to 10 μg/mL; Z = MIC of greater than 10 μg/mL)”. Besides, the “TIG MPC4 CMY-6 EC1010” value in the assay with EC1010 (CMY-6) [8] is recorded as “Y (key: X = MIC of less than 1 μg/mL; Y = MIC of 1 μg/mL to 10 μg/mL; Z = MIC of greater than 10 μg/mL)”.
